Experimental data reported in US5023270A, “Antidepressant method of use” (priority 1988, dated 1991).
Entries after “also recorded” stand apart in the source; their conditions may differ.

Legend:
[1] = test system: major depressive disorder; assay: Clinical study of antidepressant effect (17 HDRS items), major depressive disorder; assay type: in vivo, human
Description: Experimental verification of the clinical effects of 5-MOP on depressive patients was performed on 24 physically sane subjects (11 men and 13 women), suffering from a major depressive disorder.
Chosen patients afflicted with a major depressive disorder according to DSM III were given no treatment 4 days prior to the experiment, except for 5 mg nitrazepam in the evening.
The patients were divided into two groups. The first group was treated with a single daily dose of 40 mg 5-MOP during a week, administered orally at 9:00 p.m. The second group was given placebos, double blindly, under identical conditions.
To prevent any parallel effects due to the photosensitive properties of 5-MOP, patients were not exposed to ultraviolet (UV) radiation during nine hours following 5-MOP intake (corresponding to their sleep period).
After a week of treatment with 5-methoxypsoralen or placebos, clinical results were established for each patient group, and compared using the Wilcoxon test (W) within groups and the Mann-Whitney test (U) between groups.

rabbits = assay: Long-term toxicity, ingestive intake; assay type: in vivo; settings: 300 mg/kg daily, 42 consecutive days
Source text: The general, long-term toxicity of 5-MOP was also investigated in rabbits treated by ingestion and dermal application, with the following results: […]

[2] = Acute oral toxicity, single administration, 14 days observation; settings: in vivo, 2% carboxymethylcellulose with 5% Tween 80
Description: Animal trials were performed with mice and male rats free from specific pathogenic organisms, subject to a preliminary water diet for 18 hours. All animals were kept under observation during 14 days after a single oral administration, in order to detect any eventuality of toxic after effects. The median lethal dose LD50 and its confidence limits were computed by the graphic method of J. T. Litchfield and F. Wilcoxon.
Oral administration was used throughout the experiments, with an aqueous solution of 2% carboxymethylcellulose treated with Tween®80 (Difco or ICI) at 5% as dispersing agent.

plasma melatonin [3] = assay: Plasma melatonin in psychiatric patients and control subjects after a single oral dose of 5-MOP; assay type: in vivo, human; settings: for Delta Melatonin: 11:00 p.m. minus 8:00 p.m. baseline, 40 mg oral; for Melatonin (11:00 p.m.): 3 h after 40 mg oral 5-MOP, mean ± SEM
Description: FIG. 1 is a bar histogram which depicts the plasma melatonin levels in six diverse groups of human subjects before and after treatment with a single dose of 40 mg 5-methoxypsoralen (5-MOP) administered orally to each subject at 8:00 p.m. The subjects were maintained in total darkness or under weak illumination (without UV) for at least 9 hours after 5-MOP intake (corresponding to the sleep period). Blood samples were taken at 8:00 p.m. prior to 5-MOP administration and at 11:00 p.m. (see text for full description of experimental details). Plasma melatonin levels were evaluated by radioimmunology after extraction in diethylether using the method of Treifenaueret, Andres. Melatonin levels were established and compared with each group of subjects with similar age means using paired t-tests and between groups using unpaired t-tests. " -melatonin is defined as the difference between plasma melatonin levels (nmd/1) after 5-MOP uptake (3 hours after administration and =before 5-MOP administration; =after 5-MOP uptake. (p=significance of difference between the two values. )
The experiment was performed on six groups of human subjects.
Control groups 1, 2 and 3 comprised respectively:
Group 1: 13 elderly, sane subjects (7 women, 6 men).
Group 2: 13 middle-aged, sane subjects (6 women, 7 men).
Group 3: 13 young, sane subjects (6 women, 7 men).
These subjects had been contacted for welfare or minor nervous problems, but were free from major psychiatric disorders or organic illnesses. Most aged subjects were waiting for admission to nursing homes.
These elderly patients had no major cardiac, hepatic, renal, endocrineous or osseous disorders, nor any evolutionary pathology.
Group 5 comprised 13 subjects (8 women, 5 men) in an acute depressive phase, showing all symptoms of a major depressive disorder in the sense of DSM III.
Group 6 comprised 13 schizophrenic subjects (6 women, 7 men), according to DSM III criteria.
The diagnosis was established by means of a structured examination for affective disorders, schizophrenia and dementia, performed on each patient by two different psychiatrists. Any patient with a history of serious attendant illnesses, such as high blood pressure, diabetes, or other endocrineous pathologies, with distorted clinical or biological results, were excluded from the study. The patients received no medicaments 4 days prior to the experiment, except for 5 mg nitrazepam or 0.25 mg trazolam in the evening. All subjects participated voluntarily in the experiment and 5 were advised of its purpose. A single dose of 40 mg 5-methoxypsoralen (5-MOP) was given orally to all subjects at 8:00 p.m. To avoid any photosensitivity effects due to psoralen, patients were maintained in total darkness or under weak illumination (without UV) for at least 9 hours after 5-MOP intake (corresponding to the sleep period).
Blood samples were taken at 8:00 p.m., prior to 5-MOP administration, and again at 11:00 p.m., by means of a stationary catheter attached to the forearm at least twenty minutes before extraction of the first blood sample. Samples were immediately centrifugated at 4° C. and refrigerated at -20° C. until quantitative analysis. Plasma levels were evaluated by radioimmunology after extraction in diethylether, using the #method of Treifenaueret, Andres.
Melatonin levels were established and compared within each group by means of paired t-tests, and between groups by unpaired t-tests.
Because age could influence endocrinous responses, only groups with similar age means were compared in these experiments.
" melatonin" has been defined as the difference between melatonin levels after 5-MOP intake and the corresponding baseline values. The parameter "p" measures the significance of the difference between two values.

plasma melatonin [4] = settings: cited from earlier work

Structure (SMILES): COc1c2ccoc2cc2oc(=O)ccc12 [5-MOP, 4-methoxy-7H-furo[3,2-g][1]benzopyran-7-one]
- side effects ([1]; 40 mg daily oral, one week): no patient treated with 5-MOP suffered side effects
- treatment period to obtain the same improvement in behavior ([1]; 5-MOP composition compared with tricyclics): one
- HDRS J7 ([1]; 17 HDRS items, 40 mg daily oral 9:00 p.m., one week, n=12, HDRS J0 21.92 ± 8.21, W 3.5, p 0.01, placebo J7 21.16 ± 5.02): 16.67 ± 7.99
- improvement of depressive state (in words) ([1]; after a week of treatment, 40 mg daily oral, vs placebo): significant improvement; also recorded: rapid improvement from depression; also recorded: significantly improves the depressive state
- effect without UVA irradiation ([1]; without irradiation of patients by UVA): full effect
- tolerance in toxicological tests (general condition, hematological, anatomicopathological, skin and eye, clinical chemolysis) (rabbits): good tolerance
- LD50 at 336 h ([2]; mouse, male mice): 8100 mg/kg
- LD50 at 336 h ([2]; rat, male rats): > 30000 mg/kg
- Delta Melatonin (plasma melatonin [3]; Control 1 (elderly sane)): 0.22 ± 0.11 nmd/1
- Melatonin (11:00 p.m.) (plasma melatonin [3]; Control 1 (elderly sane, n=13), baseline 8:00 p.m. 0.19 ± 0.05): 0.42 ± 0.12 nmd/1
- Delta Melatonin (plasma melatonin [3]; Control 2 (middle-aged sane)): 0.20 ± 0.08 nmd/1
- Melatonin (11:00 p.m.) (plasma melatonin [3]; Control 2 (middle-aged sane, n=13), baseline 8:00 p.m. 0.16 ± 0.04): 0.36 ± 0.09 nmd/1
- Delta Melatonin (plasma melatonin [3]; Control 3 (young sane)): 0.21 ± 0.09 nmd/1
- Melatonin (11:00 p.m.) (plasma melatonin [3]; Control 3 (young sane, n=13), baseline 8:00 p.m. 0.16 ± 0.05): 0.36 ± 0.11 nmd/1
- correlation between melatonin levels and absolute 5-MOP content (plasma melatonin [3]; at the dosage used (40 mg)): No correlation was observed
- melatonin levels after 5-MOP intake (in words) (plasma melatonin [3]; control groups, vs before intake, t=4.59, p<0.01, t=4.18, p<0.001, t<3.92, p<0.001): substantially higher
- Melatonin (11:00 p.m.) (plasma melatonin [3]; dements (n=13), baseline 8:00 p.m. 0.21 ± 0.06, t=3.34, p<0.01): 0.30 ± 0.08 nmd/1
- mean delta melatonin vs control group (in words) (plasma melatonin [3]; dements vs elderly control group, r=2.4, p<0.03): substantially lower
- Delta Melatonin (plasma melatonin [3]; dements, vs Control 1 t/p 2.4/0.025): 0.09 ± 0.06 nmd/1
- Melatonin (11:00 p.m.) (plasma melatonin [3]; depressives (n=13), baseline 8:00 p.m. 0.22 ± 0.06, t=2.29, p<0.05): 0.39 ± 0.15 nmd/1
- mean delta melatonin vs control group (in words) (plasma melatonin [3]; depressives vs control group, r=0.59, p<0.05, not significant): slightly lower
- Delta Melatonin (plasma melatonin [3]; depressives, vs Control 2 t/p 0.59/0.562): 0.17 ± 0.09 nmd/1
- plasma melatonin levels after administration (in words) (plasma melatonin [3]; psychiatric subjects): significant rise; also recorded: significant increase
- Melatonin (11:00 p.m.) (plasma melatonin [3]; schizophrenics (n=13), baseline 8:00 p.m. 0.21 ± 0.09, t=8.31, p<0.0001): 0.48 ± 0.09 nmd/1
- Delta Melatonin (plasma melatonin [3]; schizophrenics, vs Control 3 t/p 0.58/0.567): 0.15 ± 0.05 nmd/1
- side-effects (plasma melatonin [3]; single 40 mg oral dose, all groups): No patient exhibited side-effects
- retinal sensitivity to light (plasma melatonin [4]; humans, acute effect): increases
- plasma melatonin levels / melatonin secretion (in words) (plasma melatonin [4]; humans, sane subjects, earlier reports): increased melatonin secretion; also recorded: increases in plasma melatonin levels
- effect on other endocrine hormones (plasma melatonin [4]; perfectly sane human subjects): no discernible effect

Structure (SMILES): COc1c2occc2cc2ccc(=O)oc12 [8-methoxypsoralen, reference compound]
- LD50 at 336 h ([2]; mouse, male mice): 875 mg/kg
- LD50 at 336 h ([2]; rat, male rats): 4400 mg/kg
